Molecules are shown by their SMILES.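 Method: 48-hour compound exposure of cells in 96-well plates, five concentrations, linear interpolation of endpoints. TGI: total growth inhibition.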 Where a SMILES comes first, the peptide text is derived from it. [ ]: non-standard residue; d: D form. The star is where a group is joined. Phe(4-NO2) = N[CH](Cc1ccc([N+](=O)[O-])cc1)C(=O)O; Hiv = CC(C)[C@H](O)C(=O)O; Boc = CC(C)(C)OC(=O)*

Among the test systems are A498 renal; DU-145 prostate; HOP-62 NSCLC; HT29 colon; IGROV1 ovarian; MDA-MB-435; MOLT-4 leukemia; NCI-H226 lung; NCI/ADR-RES ovarian; OVCAR-3 ovarian; OVCAR-4 ovarian; OVCAR-5 ovarian; RXF 393 renal; SF-539 CNS; SK-MEL-28 melanoma; SK-OV-3 ovarian; SR leukemia; U251 CNS; SF-268 CNS; TK-10 renal.
Holding throughout (test): NCI anticancer screen, dose series, 48 h

In the case of `Cc1c/c(=N/NC(=O)c2ccncc2)n2nc(N)sc2n1`, the TGI in the experiment with A498 renal, in the experiment on DU-145 prostate, in the experiment on HOP-62 NSCLC, in the experiment on HT29 colon, in the experiment with IGROV1 ovarian and in the experiment with MDA-MB-435 was over 100 µM in each case. The TGI in the experiment on MOLT-4 leukemia, in the experiment on NCI-H226 lung, in the experiment with NCI/ADR-RES ovarian, in the experiment on OVCAR-3 ovarian, with OVCAR-4 ovarian and in the experiment on OVCAR-5 ovarian was over 100 µM throughout. Further, the TGI in the experiment with RXF 393 renal, with SF-539 CNS, in the experiment on SK-MEL-28 melanoma, in the experiment on SK-OV-3 ovarian, in the experiment on SR leukemia and in the experiment with U251 CNS was over 100 µM throughout.

Regarding `NCCNCCCNC(=O)c1cc(-c2ccccc2)nc2ccccc12`, the TGI in the experiment with A498 renal was over 100 µM; in the experiment with DU-145 prostate it was over 100 µM; in the experiment with HOP-62 NSCLC it was over 100 µM; in the experiment with HT29 colon, over 100 µM; in the experiment with IGROV1 ovarian it was over 100 µM; with MDA-MB-435 it was 43.5 µM. Moreover, the TGI was 52.3 µM in the experiment with MOLT-4 leukemia; over 100 µM in the experiment on NCI-H226 lung; over 100 µM in the experiment on NCI/ADR-RES ovarian; over 100 µM in the experiment on OVCAR-3 ovarian; over 100 µM with OVCAR-5 ovarian; over 100 µM in the experiment with RXF 393 renal. The TGI with SF-268 CNS is over 100 µM; in the experiment with SF-539 CNS, 36.7 µM; in the experiment with SK-MEL-28 melanoma it was 33 µM; in the experiment on SK-OV-3 ovarian, over 100 µM; with SR leukemia, 82.3 µM; in the experiment on TK-10 renal, over 100 µM. This compound also gave a TGI in the experiment on U251 CNS of 36.6 µM.

As to `Cc1cc2c(cc1C)C(=O)/C(=C/c1ccccc1C(=O)O)C2`, the TGI with A498 renal is 88.6 µM; in the experiment with DU-145 prostate, over 100 µM; in the experiment on HOP-62 NSCLC it was over 100 µM; with HT29 colon, over 100 µM; with IGROV1 ovarian, over 100 µM; in the experiment with MDA-MB-435 it was over 100 µM. Also, the TGI in the experiment on MOLT-4 leukemia was over 100 µM; in the experiment with NCI-H226 lung, 57.8 µM; with NCI/ADR-RES ovarian, over 100 µM; with OVCAR-3 ovarian it was over 100 µM; with OVCAR-4 ovarian, over 100 µM; in the experiment with OVCAR-5 ovarian, 68.9 µM. Moreover, the TGI in the experiment with RXF 393 renal is over 100 µM; in the experiment with SF-268 CNS it was over 100 µM; with SF-539 CNS, 39.6 µM; in the experiment with SK-MEL-28 melanoma, over 100 µM; in the experiment on SR leukemia it was 62.7 µM; in the experiment on TK-10 renal, over 100 µM. Moreover, the TGI with U251 CNS stood at 68.8 µM.

As for `NS(=O)(=O)c1nnc(NS(=O)(=O)c2ccc(Cl)cc2)s1`, the TGI in the experiment with A498 renal, in the experiment on DU-145 prostate, in the experiment with HOP-62 NSCLC, in the experiment on HT29 colon, in the experiment on MDA-MB-435 and with MOLT-4 leukemia was over 100 µM throughout. The TGI in the experiment with NCI-H226 lung, with NCI/ADR-RES ovarian, in the experiment with OVCAR-3 ovarian, with OVCAR-4 ovarian, with OVCAR-5 ovarian and with RXF 393 renal was over 100 µM each time. Also, the TGI in the experiment with SF-268 CNS, with SK-MEL-28 melanoma, in the experiment with SK-OV-3 ovarian, in the experiment with SR leukemia, in the experiment on TK-10 renal and with U251 CNS was over 100 µM throughout.

Regarding `Nc1c(Br)cc(-c2nc3ccccc3s2)cc1Br`, the TGI with A498 renal, in the experiment on DU-145 prostate, in the experiment on HOP-62 NSCLC, in the experiment with HT29 colon, in the experiment on IGROV1 ovarian and in the experiment with MDA-MB-435 was over 100 µM throughout. Further, the TGI in the experiment on MOLT-4 leukemia, in the experiment with NCI-H226 lung, in the experiment on NCI/ADR-RES ovarian, in the experiment on OVCAR-3 ovarian, in the experiment with OVCAR-5 ovarian and with RXF 393 renal was over 100 µM throughout. Besides, the TGI in the experiment on SF-268 CNS, in the experiment on SF-539 CNS, in the experiment on SK-MEL-28 melanoma, with SK-OV-3 ovarian, in the experiment on SR leukemia and with TK-10 renal was over 100 µM throughout. The TGI in the experiment on U251 CNS was over 100 µM.

Turning to `COC(=O)N/N=C(\c1ccccc1)c1ccc(OC)cc1`, the TGI in the experiment with A498 renal, in the experiment on DU-145 prostate, in the experiment on HT29 colon, in the experiment on IGROV1 ovarian, in the experiment on MDA-MB-435 and with MOLT-4 leukemia was over 100 µM in each case. The TGI with NCI-H226 lung, with NCI/ADR-RES ovarian, in the experiment with OVCAR-3 ovarian, in the experiment with OVCAR-4 ovarian, in the experiment on OVCAR-5 ovarian and with RXF 393 renal was over 100 µM throughout. In addition, the TGI in the experiment on SF-268 CNS, with SF-539 CNS, in the experiment with SK-MEL-28 melanoma, in the experiment with SK-OV-3 ovarian, in the experiment with SR leukemia and in the experiment with TK-10 renal was over 100 µM each time. In the experiment with U251 CNS, this compound registered a TGI of over 100 µM.

As for `O=C(O)c1nc2ccccc2nc1NCc1ccc(F)cc1`, the TGI in the experiment with A498 renal, in the experiment with DU-145 prostate, in the experiment on HOP-62 NSCLC, in the experiment with HT29 colon, in the experiment with IGROV1 ovarian and with MDA-MB-435 was over 100 µM in each case. Further, the TGI with MOLT-4 leukemia, with NCI-H226 lung, in the experiment with NCI/ADR-RES ovarian, with OVCAR-3 ovarian, in the experiment with OVCAR-5 ovarian and with RXF 393 renal was over 100 µM in each case. In addition, the TGI in the experiment with SF-268 CNS, in the experiment on SF-539 CNS, with SK-MEL-28 melanoma, in the experiment on SR leukemia, in the experiment with TK-10 renal and in the experiment with U251 CNS was over 100 µM in each case.

Regarding `O=C(N/N=C/c1ccc(Cl)cc1)c1ccccc1Nc1ccccc1C(=O)N/N=C/c1ccc(Cl)cc1`, the TGI with A498 renal, with DU-145 prostate, in the experiment with HOP-62 NSCLC, in the experiment on HT29 colon, with IGROV1 ovarian and with MDA-MB-435 was over 100 µM throughout. Further, the TGI with MOLT-4 leukemia, in the experiment on NCI-H226 lung, in the experiment with NCI/ADR-RES ovarian, in the experiment with OVCAR-3 ovarian, with OVCAR-4 ovarian and with OVCAR-5 ovarian was over 100 µM in each case. The TGI in the experiment on RXF 393 renal, in the experiment with SF-268 CNS, in the experiment with SK-MEL-28 melanoma, in the experiment on SK-OV-3 ovarian, with SR leukemia and in the experiment with TK-10 renal was over 100 µM each time. In addition, the TGI in the experiment on U251 CNS is over 100 µM.

For the compound `CC(C)[C@@H]1OC(=O)[C@@H](C)NC(=O)[C@@H]2CCCN2C1=O` (cyclo([Hiv]-Pro-[dA])), the TGI in the experiment on A498 renal, in the experiment with DU-145 prostate, with HOP-62 NSCLC, in the experiment with HT29 colon, with IGROV1 ovarian and in the experiment on MDA-MB-435 was over 100 µM in each case. Further, the TGI in the experiment with MOLT-4 leukemia, in the experiment with NCI-H226 lung, with NCI/ADR-RES ovarian, with OVCAR-3 ovarian, in the experiment with OVCAR-4 ovarian and with OVCAR-5 ovarian was over 100 µM throughout. For the same compound, the TGI with RXF 393 renal, with SF-268 CNS, with SF-539 CNS, in the experiment on SK-MEL-28 melanoma, in the experiment on SK-OV-3 ovarian and with SR leukemia was over 100 µM throughout. This compound also gave a TGI in the experiment on TK-10 renal of over 100 µM.

Turning to `Cc1cccc(C)c1N1C(=O)C2c3[nH]c4ccccc4c3C3CCC(C(C)(C)C)CC3C2C1=O` (stereo unspecified), the TGI in the experiment on A498 renal was 37.6 µM; with DU-145 prostate, 22.5 µM; in the experiment with HOP-62 NSCLC, 13.7 µM; in the experiment on HT29 colon, 32 µM; in the experiment on IGROV1 ovarian it was 42.6 µM; in the experiment on MDA-MB-435, over 100 µM. Also, the TGI was over 100 µM in the experiment with MOLT-4 leukemia; 41 µM in the experiment with NCI-H226 lung; 48.8 µM in the experiment on NCI/ADR-RES ovarian; 30.3 µM with OVCAR-3 ovarian; 55.9 µM in the experiment on OVCAR-5 ovarian; 26.3 µM with RXF 393 renal. Also, the TGI in the experiment with SF-268 CNS is 39 µM; in the experiment with SF-539 CNS it was 37.5 µM; with SK-MEL-28 melanoma it was 45.5 µM; with SK-OV-3 ovarian, over 100 µM; in the experiment on SR leukemia it was over 100 µM; with TK-10 renal, 33.8 µM. The same compound returned a TGI in the experiment on U251 CNS of 36.6 µM.

On to `COC(=O)CCC(NC(=O)OC(C)(C)C)C(=O)NC(Cc1ccc([N+](=O)[O-])cc1)C(=O)NC(CCC(=O)OC)C(=O)OC` (stereo unspecified) (Boc-Glu(OMe)-[Phe(4-NO2)]-Glu(OMe)-OMe; configuration not given here), for which the TGI with A498 renal, with DU-145 prostate, in the experiment with HOP-62 NSCLC, in the experiment with HT29 colon, with IGROV1 ovarian and in the experiment with MDA-MB-435 was over 100 µM in each case. The TGI is 49.9 µM in the experiment on MOLT-4 leukemia; over 100 µM in the experiment with NCI-H226 lung; over 100 µM with NCI/ADR-RES ovarian; over 100 µM in the experiment on OVCAR-3 ovarian; over 100 µM in the experiment with OVCAR-4 ovarian; over 100 µM in the experiment with OVCAR-5 ovarian. For the same compound, the TGI in the experiment on RXF 393 renal is over 100 µM; in the experiment with SF-268 CNS, over 100 µM; in the experiment with SF-539 CNS, over 100 µM; with SK-MEL-28 melanoma, over 100 µM; in the experiment on SK-OV-3 ovarian, over 100 µM; in the experiment with SR leukemia it was 51.6 µM. Besides, the TGI with TK-10 renal is over 100 µM.

The values are drawn from PubChem BioAssay (NCI).
